These results are taken from US7662767B2, “Polynucleotide intercalator interceptors and inhibitors” (Materials Evolution and Development USA, Inc., priority 2000, dated 2010).

The subject of assay [1] is apChromatin (depurinated chicken erythrocyte nuclear chromatin). Kind of assay: Acridine orange staining after acid hydrolysis of dsDNA to apurinic acid, fluorescence microscopy. It is filed as binding. How it is done: Depurination of dsDNA within the nuclear chromatin of chicken erythrocytes was accomplished by using a modification of the Feulgen method (Feulgen and Rossenbeck, 1924). Specifically, the nucleated chicken erythrocyte slide preparations were rinsed in a 1 N solution of HCl at room temperature for 60 seconds. This was followed by placement of the slide in a pre-heated (55° C.) solution of 1 N HCl for 10 minutes under static conditions followed by several rinses in distilled water at room temperature. Slides were allowed to dry at room temperature then stained with AO at two different concentrations, one at 5 mM and the other at 10 μM for 15 min and 2 min, respectively. The depurination of DNA was expected to remove the site on the DNA polymer where AO intercalation can occur.
Solutions of AO were prepared at 5 mM and 10 μM concentrations in distilled water. […] Processed slides were stored in the dark then read and photomicrographs taken (Zeiss Model 63 Microscope, 1600 ASA Kodak film) soon after removal from the dark to avoid photobleaching.
(§1) In the example shown in Table 4-1, the chicken erythrocytes were smeared and dried on a microscope slide prior to exposure to two different concentrations of AO (10 μM and 5 mM), rinsed with distilled water, and allowed to dry. Erythrocytes were examined with fluorescence microscopy and the color of the nuclei recorded. […]

Assay [2] relates to chicken erythrocyte nuclear chromatin. Kind of assay: Acridine orange staining of chicken erythrocyte nuclear chromatin, fluorescence microscopy. It is filed as binding. How it is done:
Chicken erythrocytes were chosen as one implementation of this invention. These nucleated cells have mature erythrocytes with no RNA. Blood was taken from a mature chicken. The blood was drawn from a wing vein into 50 ml glass heparin containing tubes to prevent clotting. This blood was used to make smears on microscope slides. These blood smeared slides were allowed to dry at room temperature and were stored in microscope boxes.
Solutions of AO were prepared at 5 mM and 10 μM concentrations in distilled water. Microscope slides smeared with chicken erythrocytes were stained by placing the slide into a glass slide holder containing 50 ml of AO solution under static conditions from 2 min to 30 min, followed by three 10 second rinses in distilled water before drying at room temperature. […] Processed slides were stored in the dark then read and photomicrographs taken (Zeiss Model 63 Microscope, 1600 ASA Kodak film) soon after removal from the dark to avoid photobleaching.
as §1

The conditions of assay [3]: AO-CAF, cited from earlier work.

Each structure is given as a SMILES string. Where two headings read alike, the source gives them in different places.

For `CN(C)c1ccc2cc3ccc(N(C)C)cc3nc2c1.Cl` [AO, 3,6-bis[dimethylamino]acridine hydrochloride], the “Fluorescent Color” value was “No Color” in assay [1] (AO 10 μM), “Red” in assay [1] (AO 5 mM), “Green” in assay [2] (AO 10 μM) and “Red” in assay [2] (AO 5 mM).

Regarding `Cn1c(=O)c2c(ncn2C)n(C)c1=O` [1,3,7-trimethyl xanthine (caffeine), 1,3,7-trimethyl xanthine], the “K ± S.D.” value is 169 ± 9 M⁻¹ in assay [3] (Absorbance plus NaCl 150 mM, AO [20 μM], CAF [1-2000 μM], Kapuscinski & Kimmel, 1993); 258 ± 5 M⁻¹ in assay [3] (Absorbance, AO [10 μM], CAF [1-5000 μM], Larsen et al., 1996); 258 ± 7 M⁻¹ in assay [3] (Absorbance, AO [20 μM], CAF [1-2000 μM], Kapuscinski & Kimmel, 1993).
